From patent publication US7820656B2, “Pharmaceutical composition comprising N-aryl N′ morpholino/piperidino thiocarbamide derivatives for treating type II diabetes” (priority 2004, dated 2010) come the findings set out here.

The test system of one series is RAW 264.7 cells. The series is described as follows: Measurement of anti-inflammatory action (nitrites, Griess reaction, LPS-stimulated). The series is classed as cell-based. Particulars: for Produced nitrites: 15 hours, control 3.3435, LPS 6.2775. The method, then: Nitrites accumulated in a cellular medium were measured as a marker of […] (NO) formation through a Griess reaction. RAW 264.7 cells were cultured in a medium containing DMEM, 10% FBS, penicillin (100 units/ml) and streptomycin sulfate (100 μg/ml) in a presence of 5% CO2, treated with N-aryl N′ morpholino/piperidino thiocarbamide derivatives in a content of 10 μg/ml and 100 μg/ml in a presence of LPS (1 μg/ml), followed by adding a Griess reagent 100 μl to the medium 100 μl 15 hours later to be cultured at room temperature for 10 minutes and measuring an absorbance at 540 nm. Nitrite content in a medium was evaluated by a standard curve using NaNO2.

A further series relates to HepG2 cells. The series is described as follows: Measurement of lipid peroxide (TBARS). As to conditions: for Average content of TBARS (%): control 100.0; for decrease of TBARS content compared with control group: HepG2, 24 hours (FIG. 4). The series is classed as cell-based. The method, then: HepG2 cells were cultured to administer N(4′-chlorophenyl) N′ morpholino thiocarbamide (10 μg/ml-100 μg/ml). After 24 hours, a cellular culture solution was removed to wash HepG2 cells with a phosphate buffer solution (PBS), prior to adding 0.1% Triton X-100 to detach the cells. The separated cell extracts were mixed with 20% acetic acid, pH 3.5 and 0.78% aqueous thiobarbituric acid solution. The mixture was heated at 95° C. for 1 hour and centrifuged at 3000 rpm for 15 minutes. The absorbance of the red supernatant was measured at 532 nm (Anal Biochem, 1979, 95, 351-358).

The subject of the next series is HepG2 hepatocyte. As to the kind of experiment: Measurement of glycogenesis ability (glycogen content, absorbance at 490 nm). Particulars: for Glycogenesis (absorbance): absorbance at 490 nm, control 0.103; for Rate of Increase(%) of glycogenesis: versus control. In kind it is cell-based. On the procedure: Thereto, ethanol was added to precipitate glycogen, followed by dissolving the precipitated glycogen in conc. sulfuric acid. Glucose produced was reacted with phenol to obtain a stained product. An absorbance of the stained product was measured at 490 nm (J Applied Physiol, 1970, 28, 234-236).

Series [1] is described as follows: Measurement of lethal dose 50%. In kind it is in vivo, mouse. Particulars: mouse, in vivo; oral, mice. On the procedure:
(§1) The number of dead animal was counted after N(4′-chlorophenyl) N′ morpholino thiocarbamide was orally administered to 10 mice per a dose in a dose of 50 mg/kg, 500 mg/kg, and 5000 mg/kg.

A further series deals with mice. The series is described as follows: Measurement of lethal dose 50%. In kind it is in vivo, mouse. Particulars: oral, 50 mg/kg, 500 mg/kg and 5000 mg/kg, 10 mice per dose. On the procedure: as §1
Series [2] deals with streptozotocin-induced diabetic mouse. As to the kind of experiment: Blood glucose lowering effect using a streptozotocin-induced diabetic mouse. In kind it is in vivo. Particulars: 80 mg/kg oral a day, 5 days a week, 3 consecutive weeks; STZ control almost 550 mg/dl (FIG. 2). On the procedure:
A mouse was used two weeks after streptozotocin (50 mM citrate buffer, pH 4.5) was intraperitoneally administered to the mouse (J Gene Med. 2003, 5, 417-424). […] Change of blood glucose level was measured once a week.

A further series has as its target T1, insulin receptor (Mus musculus, UniProt P15208).
T1 construct: the mouse was dissected to separate a liver at 4° C; from tissue; host or cells: mouse liver (hepatic lysate)
As to the kind of experiment: Phosphorylation measurement of insulin receptor tyrosin residues (hepatic lysate, immunoprecipitation, western blot). The series is classed as in vivo. As to conditions: 80 mg/kg to mouse starved 16 hours, liver after 1 hour; compared with control (FIG. 5). On the procedure:
N(4′-chlorophenyl) N′ morpholino thiocarbamide in a dose of 80 mg/kg was administered to a male IC mouse starved for 16 hours. After an hour passed, the mouse was dissected to separate a liver at 4° C. Hepatic homogenization was provided by a little modification of conventional method (Zhao, H., Xu, H., Moore, E., Meiri, N., Quon, M. J., Alkon, D., L., Insulin receptors and spatial memory. J. Biol. Chem. 274, 34893-34902, 1999). The separated liver was suspended in a buffer A containing 50 mM Tris HCl, pH 7.4, 1 mM EDTA, 1 mM EGTA, 150 mM NaCl, 1% Triton X-100, 0.5 mM PMSF, 1 mM Na3VO4, leupeptin and aprotinin 1 μg/ml, and homogenized using a Potter-Elvehjem homogenizer. The lysate was centrifuged at 10,000×g for 20 minutes. The supernatant was analyzed on proteins and preserved at −70° C.
An immunoprecipitation was carried out by a known technique (Kim S. J., Kahn, C. R. Insulin stimulates phosphorylation of c-Jun, c-Fos and Fos-related proteins in cultured adipocytes. J. Biol. Chem. 269, 11887-11892, 1994). An equal amount of proteins from hepatic lysate were cultured with an insulin receptor antibody at 4° C. for 1 hour, followed by thereto adding protein A-cephalos to precipitate the immune complex by a centrifuge. […]

Series [3] is described as follows: Measurement of body weight. In kind it is in vivo. Particulars: 80 mg/kg oral once a day for 3 consecutive weeks; administered group vs control (FIG. 6). The method, then:
Change of body weight was measured every week before and after N(4′-chlorophenyl) N′ morpholino thiocarbamide (80 mg/kg, PO) was administered.

Another series concerns mouse. As to the kind of experiment: Oral glucose tolerance test. The series is classed as in vivo. As to conditions: 80 mg/kg oral 1 h before glucose 2 g/kg oral; blood glucose at 30, 60, 120 min; compared with control (FIG. 1). On the procedure:
A mouse was starved for 18 hours, prior to orally administering N(4′-chlorophenyl) N′ morpholino thiocarbamide to the mouse in a dose of 80 mg/kg. After an hour passed, Glucose of 2 g/kg was orally administered to measure blood glucose level in 30, 60, and 120 minutes using a blood glucose testing kit.

[4] abbreviates: Dosage 10 ug/ml with LPS 1 μg/ml.
The mark [5] stands for this setting: Dosage 100 ug/ml with LPS 1 μg/ml.

Where only a bound is given, the exact number is not on record here.

T1 sequence (P15208 28-748 limits assumed): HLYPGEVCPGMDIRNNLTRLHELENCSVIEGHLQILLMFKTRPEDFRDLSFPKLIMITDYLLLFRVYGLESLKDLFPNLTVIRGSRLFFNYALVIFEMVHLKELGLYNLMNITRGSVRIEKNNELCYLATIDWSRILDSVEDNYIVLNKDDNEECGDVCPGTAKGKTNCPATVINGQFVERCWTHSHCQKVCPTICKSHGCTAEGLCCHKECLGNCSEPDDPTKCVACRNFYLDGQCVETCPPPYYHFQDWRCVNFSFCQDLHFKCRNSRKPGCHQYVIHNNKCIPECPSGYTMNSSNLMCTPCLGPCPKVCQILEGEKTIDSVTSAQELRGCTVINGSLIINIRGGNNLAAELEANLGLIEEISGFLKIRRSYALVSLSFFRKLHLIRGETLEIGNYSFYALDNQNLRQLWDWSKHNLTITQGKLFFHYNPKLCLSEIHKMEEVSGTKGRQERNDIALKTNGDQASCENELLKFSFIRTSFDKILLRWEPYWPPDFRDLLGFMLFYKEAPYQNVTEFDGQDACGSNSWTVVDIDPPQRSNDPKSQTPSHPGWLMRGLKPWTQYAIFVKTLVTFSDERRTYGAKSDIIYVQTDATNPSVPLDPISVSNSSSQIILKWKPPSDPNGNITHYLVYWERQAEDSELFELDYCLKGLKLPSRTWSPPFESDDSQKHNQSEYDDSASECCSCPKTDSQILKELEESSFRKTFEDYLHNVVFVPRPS

For `COc1cccc(NC(=S)NN2CCOCC2)c1` [3-methoxyphenyl], the “% (produced nitrites; control 0, LPS 100)” value with RAW 264.7 cells (setting [4]) is 81.19%; with RAW 264.7 cells (setting [5]), 56.99%. Moreover, the “Produced nitrites” value in the series with RAW 264.7 cells (setting [4]) was determined as 5.7255 µM; with RAW 264.7 cells (setting [5]), 5.0155 µM. Also, the “Average content of TBARS (%)” value in the series with HepG2 cells (Dosage 10 μg/ml) stood at 81.9%; in the series on HepG2 cells (Dosage 100 μg/ml), 63.9%. Further, the “Glycogenesis (absorbance)” value with HepG2 hepatocyte (Dosage 10 μg/ml) turned out to be 0.191; with HepG2 hepatocyte (Dosage 100 μg/ml), 0.202. In addition, the “Rate of Increase(%) of glycogenesis” value in the series on HepG2 hepatocyte (Dosage 10 μg/ml) stood at 85%; in the series with HepG2 hepatocyte (Dosage 100 μg/ml), 96%.

Consider `S=C(Nc1ccccc1)NN1CCOCC1` [phenyl (C11H15N3OS)], for which the “% (produced nitrites; control 0, LPS 100)” value was found to be 62.37% in the series with RAW 264.7 cells (setting [4]) and 48.93% in the series on RAW 264.7 cells (setting [5]). Besides, the “Produced nitrites” value worked out at 5.1735 µM with RAW 264.7 cells (setting [4]) and 4.779 µM in the series on RAW 264.7 cells (setting [5]). The “Glycogenesis (absorbance)” value in the series on HepG2 hepatocyte (Dosage 10 μg/ml) worked out at 0.301; in the series with HepG2 hepatocyte (Dosage 100 μg/ml) it was 0.225. The “Rate of Increase(%) of glycogenesis” value was 195% in the series with HepG2 hepatocyte (Dosage 10 μg/ml) and 118% with HepG2 hepatocyte (Dosage 100 μg/ml).

Regarding `S=C(Nc1ccc(Cl)cc1)NN1CCOCC1` [N(4′-chlorophenyl) N′ morpholino thiocarbamide], the “% (produced nitrites; control 0, LPS 100)” value was 4.81% with RAW 264.7 cells (setting [4]) and −9.85% in the series with RAW 264.7 cells (setting [5]). The “Produced nitrites” value in the series with RAW 264.7 cells (setting [4]) was 3.4845 µM; with RAW 264.7 cells (setting [5]), 3.0545 µM. The compound further registered an LD50 in series [1] above 5000 mg/kg. The “number of dead animals” value in the series on mice is reported as “no mouse was dead”. The “decrease of TBARS content compared with control group” value in the series on HepG2 cells (10 μg/ml) was 10.2%; in the series with HepG2 cells (100 μg/ml) it was 32%. In series [2], this compound registered a blood glucose level of 300 to 400 mg/dL. At insulin receptor, the “tyrosin phosphorylation of insulin receptors” value is reported as “noticeable tyrosin phosphorylation of insulin receptors”. Besides, in series [3], the “change of body weight” value is on record as “no difference in body weight”. Moreover, in the series with mouse, the “blood glucose lowering effect in oral glucose tolerance test” value is on record as “remarkable blood glucose lowering effect”. Further, the “increase of glycogenesis compared with control group” value in the series with HepG2 hepatocyte (10 μg/ml, 24 hours, HepG2 (FIG. 3)) was found to be 49.89%.

On to `Cc1ccccc1NC(=S)NN1CCOCC1` [2-methylphenyl], for which the “% (produced nitrites; control 0, LPS 100)” value in the series with RAW 264.7 cells (setting [4]) was determined as 81.17%; with RAW 264.7 cells (setting [5]) it was 66.14%. The “Produced nitrites” value in the series with RAW 264.7 cells (setting [4]) stood at 5.3155 µM; in the series on RAW 264.7 cells (setting [5]), 5.284 µM. Moreover, the “Average content of TBARS (%)” value in the series with HepG2 cells (Dosage 10 μg/ml) turned out to be 57.9%; in the series on HepG2 cells (Dosage 100 μg/ml), 60.5%. Also, the “Glycogenesis (absorbance)” value came out at 0216 in the series with HepG2 hepatocyte (Dosage 10 μg/ml) and 0.238 in the series with HepG2 hepatocyte (Dosage 100 μg/ml). Besides, the “Rate of Increase(%) of glycogenesis” value with HepG2 hepatocyte (Dosage 10 μg/ml) is listed as 110%; in the series with HepG2 hepatocyte (Dosage 100 μg/ml), 131%.

Turning to `Cc1cccc(NC(=S)NN2CCOCC2)c1` [3-methylphenyl], the “% (produced nitrites; control 0, LPS 100)” value turned out to be 81.19% in the series on RAW 264.7 cells (setting [4]) and 61.83% with RAW 264.7 cells (setting [5]). Moreover, the “Produced nitrites” value with RAW 264.7 cells (setting [4]) amounted to 5.7255 µM; in the series with RAW 264.7 cells (setting [5]) it was 5.1575 µM. Besides, the “Average content of TBARS (%)” value is on record as 67.5% in the series on HepG2 cells (Dosage 10 μg/ml) and 66.3% in the series with HepG2 cells (Dosage 100 μg/ml). In addition, the “Glycogenesis (absorbance)” value was found to be 0.189 in the series with HepG2 hepatocyte (Dosage 10 μg/ml) and 0.325 with HepG2 hepatocyte (Dosage 100 μg/ml). For the same compound, the results for the “Rate of Increase(%) of glycogenesis” value in the series with HepG2 hepatocyte (Dosage 10 μg/ml) and in the series with HepG2 hepatocyte (Dosage 100 μg/ml) were 83% and 216%, respectively.

Turning to `S=C(Nc1ccccc1)NN1CCCCC1` [phenyl (C12H17N3S)], the “% (produced nitrites; control 0, LPS 100)” value with RAW 264.7 cells (setting [4]) was found to be 75.26%; in the series on RAW 264.7 cells (setting [5]), 74.20%. For the same compound, the “Produced nitrites” value in the series on RAW 264.7 cells (setting [4]) came out at 5.5515 µM; in the series on RAW 264.7 cells (setting [5]) it was 5.5205 µM. The entries for the “Average content of TBARS (%)” value with HepG2 cells (Dosage 10 μg/ml) and in the series on HepG2 cells (Dosage 100 μg/ml) were 61.4% and 65.1%, respectively. In addition, the results for the “Glycogenesis (absorbance)” value in the series with HepG2 hepatocyte (Dosage 10 μg/ml) and in the series with HepG2 hepatocyte (Dosage 100 μg/ml) were 0.196 and 0.161, respectively. Besides, the “Rate of Increase(%) of glycogenesis” value was 90% in the series with HepG2 hepatocyte (Dosage 10 μg/ml) and 56% in the series with HepG2 hepatocyte (Dosage 100 μg/ml).
